{"source": "patent EP0109340A2", "about": "“Acid salts of 2-piperazinopyrimidine, process for their preparation and pharmaceutical compositions containing them” (priority 1982, dated 1984)", "key": {"[1]": {"test_system": "comportement de rotation chez la souris après lésion unilatérale du striatum", "assay": "rotation behaviour after unilateral 6-hydroxydopamine lesion of the striatum (dopaminergic mechanism)", "assay_type": "in vivo, souris femelles Charles River CD1", "details": "oral, dose corresponding to 0,15 mg/kg free base; for activité dans le temps (rotations): course over 1, 3 and 6 h; for activité dans le temps (rotations) / somme algébrique des rotations ipsilatérales et contralatérales à la lésion: result in words; for somme algébrique des rotations ipsilatérales et contralatérales à la lésion: versus controls", "text": "Le mécanisme dopaminergique d'un composé représentatif de l'invention, la 2-(1-pipérazinyl)pyrimidine mcno-L (+) - tartrate, a été étudié en comparaison avec la base libre correspondante et son chlorhydrate par l'analyse du comportement de rotation chez la souris après lésion unilatérale du striatum (P. Protais et al. J. Pharmacol. 1976, 7, 251).\nDes souris femelles Charles River CD1 pesant de 20 à 24 g ont préalablement fait l'objet d'une lésion unilatérale du striatum par injection stéréotaxique de 6-hydroxydopamine à raison de 8 mcg par animal. Une semaine après cette opération, la 2-(1-pipérazinyl)pyrimidine mono-L(+)-tartrate, la 2-(l-pipérazinyl)pyrimidine chlorhydrate et la base libre ont été administrées par voie orale à des groupes de 6 souris à une dose correspondant à 0,15 mg/kg de base libre. Le nombre de rotations à été évalué, pendant 2 minutes, 1, 3 et 6 heures après l'administration des trois produits. Les rotations ipsilatérales à la lésion ont été comptées positivement, celles contralatérales ont été comptées négativement. La somme algébrique des rotations pour chaque groupe d'animaux traités a été comparée à celle du groupe d'animaux témoins n'ayant reçu que le véhicule (sérum physiologique).\nLe Tableau IV ci-dessous montre la variation pour cent, par rapport aux animaux témoins, des rotations."}, "[2]": {"test_system": "catalepsie provoquée par la prochlorpérazine", "assay": "antagonism of the onset of prochlorperazine-induced catalepsy (cork test, predictive of antidepressant activity)", "assay_type": "in vivo, rats mâles Wistar", "details": "1 h before prochlorperazine 10 mg/kg s.c., read 5 h later", "text": "L'activité antidépressive des composés de l'invention a été évaluée dans le test de l'antagonisme vis-à-vis de l'installation de la catalepsie provoquée par la prochlorpérazine (K. Eizière et al., Arzneimittel Forschung, 1982, 32 (II), 824).\nUn composé représentatif de l'invention, à savoir le monomaléate de 2-(1-pipérazinyl)pyrimidine, a été administré par voie intrapéritonéale à des groupes de 10 rats mâles Wistar pesant 220-240 g; des animaux de contrôle ont été en même temps traités par du sérum physiologique. Une heure après, les animaux ont reçu, par voie sous-cutanée, de la prochlcrpérazine à une dose de 10 mg/kg. Cinq heures après cette administration, le nombre d'animaux cataleptiques a été estimé par le test du bouchon. Ce test consiste à positionner les animaux de telle sorte qu'ils puissent maintenir pendant au moins 20 seconds leurs pattes en appui sur une colonne formée de trois bouchons de liège superposés (hauteur totale 11 cm). Les performances réalisées pour chaque groupe d'animaux ont été comparées à celles du groupe d'animaux témoins n'ayant reçu que le véhicule et la prcchlorpérazine.\nLe tableau ci-dessous montre le pourcentage d'antagonisme de l'installation de la catalepsie provoquée par la prochlorpérazine."}, "[3]": {"test_system": "toxicité de groupe due à l'amphétamine", "assay": "antagonism of amphetamine group toxicity (predictive of antipsychotic action)", "assay_type": "in vivo, souris Charles Fiver CD1", "details": "Mus musculus, ip; median effective dose against mortality due to amphetamine 30 mg/kg i.p.; compound i.p. 30 min before; mortality over 24 h; confidence limits 10,1 - 26,7; read-out: DE50 (limites de confiance)", "text": "L'activité antipsychotique d'un composé représentatif, le monomaléate de 2-(1-pipérazinyl)pyrimidine, a été déterminée dans le test de l'antagonisme de la toxicité de groupe due à l'amphétamine (J.H. Burn et al., Arch. Int. Pharmacodyn. Ther. 1958, 113, 290).\nLe monomaléate de 2-(1-pipérazinyl)pyrimidine a Été administré à des doses croissantes par voie intrapéritonéale à des lots de 10 souris Charles Fiver CD1 pesant 20-22 g et groupées dans des cages de 22 cm de long, 12 cm de large et 12 cm de haute. Trente minutes après l'administration, on a injecté par voie intrapéritonéale de l'amphétamine à la dose de 30 mg/kg. La mortalité des animaux a été évaluée durant les 24 h qui ont suivi l'injection d'amphétamine et comparée, dans chaque groupe, à celle du groupe d'animaux témoins n'ayant reçu que le véhicule (sérum ghysiologigue).\nLe tableau ci-dessous montre la dose efficace médiane (DE5G) d'antagonisme de la mortalité due à l'amphétamine."}, "[4]": {"details": "free base, tested within a series of compounds; literature; cited from earlier work"}}}
{"smiles": "c1cnc(N2CCNCC2)nc1", "note": "[2-(1-pipérazinyl)pyrimidine monc-L(+)-tartrate] [mono-L(+)-tartratede 2-(1-pipérazinyl)pyrimidine]", "values": [{"measurement": "variation négative (variation pour cent des rotations par rapport aux animaux témoins)", "setting": "[1]; 6th hour", "value": "> 100", "unit": "%"}, {"measurement": "activité dans le temps (rotations)", "setting": "[1]", "value": "son activité augmente significativement dans le temps"}]}
{"smiles": "c1cnc(N2CCNCC2)nc1", "note": "[2-(1-pipérazinyl)pyrimidine monomaléate, monomaléatede 2-(l-pipérazinyl)pyrimidine]", "values": [{"measurement": "% d'antagonisme", "setting": "[2]; dose 0,1 mg/kg i.p.", "value": 20, "unit": "%"}, {"measurement": "% d'antagonisme", "setting": "[2]; dose 1 mg/kg i.p.", "value": 80, "unit": "%"}, {"measurement": "ED50", "setting": "[3]", "value": 16.5, "unit": "mg/kg"}]}
{"smiles": "c1cnc(N2CCNCC2)nc1", "note": "[base libre, 2-(1-pipérazinyl)pyrimidine]", "values": [{"measurement": "activité analgésique ou antifilariale", "setting": "[4]", "value": "aucun n'a montré d'activité analgésique ou antifilariale"}, {"measurement": "activité dans le temps (rotations)", "setting": "[1]", "value": "tendence à la diminution de l'activité dans le temps"}, {"measurement": "somme algébrique des rotations ipsilatérales et contralatérales à la lésion", "setting": "[1]", "value": "réduit d'une façon significative"}]}
{"smiles": "c1cnc(N2CCNCC2)nc1", "note": "[chlorhydrate, 2-(l-pipérazinyl)pyrimidine chlorhydrate]", "values": [{"measurement": "activité dans le temps (rotations)", "setting": "[1]", "value": "inactif aussi dans le temps"}, {"measurement": "somme algébrique des rotations ipsilatérales et contralatérales à la lésion", "setting": "[1]", "value": "n'a pas d'effet significatif"}]}
